Test results from patent publication US20240307390A1, “METHODS AND COMPOSITIONS FOR CANCER TREATMENT BY TARGETING AXL SIGNALING” (Sanford Burnham Prebys Medical Discovery Institute, priority 2023, published 2024).

Assays:
EYA2 = EYA2 steady-state level, stability and polyubiquitylation in cells; type: cell-based; conditions: data not shown
From the text: Input proteins are shown. […] FIG. 3C represents a putative EYA2 CPD motif across species and compared with other SCF^FBXW7 substrates. […] FIGS. 3F and 3G represent WT and Flag-EYA2-2A stability in MDA-MB-231 cells (FIG. 3F) and endogenous EYA2 in WT and Fbxw7 KO HCT116 cells (FIG. 3G). […] FIG. 3K represents flag-EYA2 stability in MDA-MB-231 cells treated with vehicle (DMSO) or GSK3βi. […] Input proteins shown. […] FIG. 3O represents a model of FBXO7 inhibition of GSK3β-SCFFBXW7-mediated degradation of EYA2.
FBXW7 expression enhanced EYA2 K48-linked but not K63-linked polyubiquitylation (FIG. 3D), indicating SCFFBXW7 regulated EYA2 degradation. IP confirmed EYA2's CPD was required for FBXW7 binding (FIG. 3E). In contrast, FBXO7-EYA2 binding was independent of EYA2's CPD (data not shown). […] In isogenic WT and Fbxw7 knockout (KO) cell lines, the steady-state level and stability of EYA2 increased and polyubiquitylation decreased in the absence of Fbxw7 (FIGS. 3G, 3H).
SCFFBXW7 substrate recognition is generally triggered by GSK3β-mediated phosphorylation of the substrate CPD. Recombinant SCFFBXW7 bound a synthetic peptide corresponding to phosphorylated EYA2 CPD (FIG. 3I). […] To determine if EYA2 degradation was regulated by GSK3β, we first confirmed endogenous GSK3 β interacted with EYA2 in vivo by IP (data not shown). […]

FBXO7-EYA2 binding = experiment: Co-IP of FBXO7-EYA2 binding in treated cells; type: cell-based; conditions: treatment of cells; data not shown
Procedure: To gain insight into how FBXO7 maintains mesenchymal phenotypes and immune evasion of cancer cells, protein mass spectrometry was conducted to identify putative interacting proteins (FIG. 2A). Eyes Absent Homolog 2 (EYA2), a co-activator of the SIX family of homeobox transcription factors with Tyr phosphatase activity, was one of the most abundant FBXO7-interacting proteins (FIG. 2B). Immunoprecipitation (IP) and in vitro pull-down assays confirmed that FBXO7 interacted with EYA2, but not directly with co-transcriptional partner SIX1 (FIGS. 2C and 2D). EYA2's transactivation domain (AD, aa1-252) but not EYA domain (ED, aa253-538), which interacts with SIX proteins, was required for FBXO7 interaction (FIG. 2E). FBXO7's F-box motif was dispensable for EYA2 interaction (FIG. 2F).
SCFFBXW7 substrate recognition is generally triggered by GSK3β-mediated phosphorylation of the substrate CPD. Recombinant SCFFBXW7 bound a synthetic peptide corresponding to phosphorylated EYA2 CPD (FIG. 3I). […] To determine if EYA2 degradation was regulated by GSK3β, we first confirmed endogenous GSK3 β interacted with EYA2 in vivo by IP (data not shown). […] GSK3β stimulated SCFFBXW7-mediated polyubiquitylation of EYA2 in in vitro ubiquitylation reactions (FIG. 3J). […] Therefore, EYA2 is degraded by SCFFBXW7 in a GSK3β-dependent manner.

[1] = system: mesenchymal and immune-stimulatory genes, cell morphology; experiment: Gene expression and cell morphology after EYA2 Tyr phosphatase inhibitor treatment; type: cell-based; conditions: similar to EYA2 KD (flat, cuboidal morphology, decreased mesenchymal, induced immune-stimulatory genes); data not shown
From the text: EYA2 KD induced a flat, cuboidal morphology, decreased mesenchymal gene expression, and induced immune-stimulatory genes (FIGS. 2G-2I), phenocopying FBXO7 KD. […] Expression of WT EYA2, but not Tyr phosphatase mutant EYA2D274N or SIX binding mutant EYA2A532R, largely rescued the decreased mesenchymal and increased immune-stimulatory genes in FBXO7 KD cells (data not shown).

cancer cells = experiment: Cancer cell viability upon doxorubicin treatment; type: cell-based; conditions: partially rescued by GAS6 expression, FIG. 5H
From the text: FIGS. 5A and 5B show a gap closure assay of control, FBXO7 KD, and FBXO7 KD+GAS6 MDA-MB-231 (FIG. 5A) and BT-549 (FIG. 5B) cells. FIGS. 5C and 5D show the migration (FIG. 5C) and invasion (FIG. 5D) of indicated control, FBXO7 KD, and FBXO7 KD+GAS6 cells. […] FIGS. 5G and 5H show viabilities of indicated control, FBXO7 KD, or FBXO7 KD+GAS6 (FIG. 5G) or vehicle or EYA2i treated (FIG. 5H) cells upon doxorubicin treatment.
FBXO7 KD diminished mesenchymal cancer cell migration and invasion in in vitro assays (data not shown). These FBXO7 KD effects were largely rescued by GAS6 expression (FIGS. 5A-5D). […] Again, these phenotypes were largely rescued by GAS6 expression (FIGS. 5E and 5F). […] Consistent with an antagonistic role of SCFFBXW7, FBXW7 KD partially rescued the reduced migration of FBXO7 KD cells and enhanced EYA2i sensitivity (data not shown).

4T1-luc breast tumors = experiment: 4T1-luc TNBC tumors in syngeneic immunocompetent mice; type: in vivo
Procedure: (§1) FIGS. 6A and 6B show growth curves (FIG. 6A) and images (FIG. 6B) of control, FBXO7 KD, and FBXO7 KD+GAS6 MDA-MB-231 breast tumors in immunocompromised mice. […] FIGS. 6E and 6F show growth curves (FIG. 6E) and images (FIG. 6F) of control and GAS6-expressing MDA-MB-231-luc breast tumors in immunocompromised mice treated with vehicle or EYA2i.
Immunocompetent mice bearing 4T1-luc TNBCs were treated with vehicle or EYA2i and isotype IgG (control) or anti-PD-1 antibody (FIG. 6H).

GAS6 in MDA-MB-231 cells = experiment: GAS6 expression and protein in MDA-MB-231 cells; type: cell-based, human
From the text: (§2) FIGS. 4E and 4F represent ChIP analysis of Flag-EYA2 (FIG. 4E) and Flag-SIX1 (FIG. 4F) binding Gas6 promoter in MDA-MB-231 cells transfected with the indicated siRNAs. FIGS. 4G-4I show GAS6 expression in MCF7 cells transfected with indicated vectors (FIG. 4G) and MDA-MB-231 cells expressing indicated shRNAs (FIG. 4H) or treated with vehicle or EYA2i (FIG. 4I). FIGS. 4J and 4K show immunoblots of AXL signaling proteins in MDA-MB-231 cells transfected with control or FBXO7 siRNA (FIG. 4J) or treated with vehicle or EYA2i (FIG. 4K).
To determine how the FBXO7/EYA2-SCFFBXW7 axis maintains mesenchymal and immune evasion phenotypes of cancer cells, chromatin IP sequencing (ChIP-seq) profiles of EYA2 binding in control and FBXO7 KD cells (FIGS. 4A and 4B) were compared. FBXO7 KD decreased EYA2 binding at various genomic regions, including promoters, exons, and introns (data not shown). […] GAS6 was chosen for further analysis because of the link between AXL and mesenchymal phenotypes in TNBC cells. ChIP confirmed that EYA2 and SIX1 bound the Gas6 promoter and binding was diminished by KD of FBXO7 or co-transcriptional counterpart (FIGS. 4E and 4F). EYA2-2A also bound the Gas6 promoter (data not shown), indicating independence of CPD phosphorylation. Further, FBXO7 bound the Gas6 promoter and FBXO7 or ΔF-FBXO7 expression stimulated EYA2 binding (data not shown). […]

AXL signaling = experiment: Immunoblots of AXL signaling proteins in MDA-MB-231 cells; type: cell-based, human; conditions: FIG. 4K
From the text: as §2
In line with the role of GAS6 as an AXL ligand, FBXO7 KD decreased total AXL and phospho-AXLTyr702 and decreased AXL surface expression (FIGS. 4J and 4M), indicating inhibition of AXL signaling. […] GAS6 expression rescued the decreased total and phospho-AXLTyr702 in FBXO7 KD cells (FIG. 4L). Consistent with a role of SCFFBXW7 in antagonizing FBXO7 functions, FBXW7 KD rescued the decreased GAS6 and attenuated AXL signaling in FBXO7 KD cells (data not shown). […] Expression of proinflammatory cytokine suppressor and AXL signaling effector SOCS1 partially rescued the increased IFNα/β, CXCL9/10, and HLA-A/B induced by FBXO7 KD (FIG. 4O). Further, GAS6 expression rescued the increased HLA-A/B/C surface expression on FBXO7 KD cells (data not shown).

[2] = system: MDA-MB-231-luc breast tumors; experiment: Orthotopic MDA-MB-231-luc breast tumors in immunocompromised mice; type: in vivo; conditions: partially rescued by GAS6 expression
From the text: as §1

SMILES | EYA2 levels (EYA2) | FBXO7-EYA2 binding (FBXO7-EYA2 binding) | effects on gene expression and cell morphology [1] | sensitivity of cancer cells to doxorubicin treatment (cancer cells) | intertumoral infiltration of CD8+T and NK cells (4T1-luc breast tumors; flow cytometric and IHC analyses of 4T1-luc tumors) | H-2Kd MHC class I alloantigen surface expression on 4T1-luc tumor cells (4T1-luc breast tumors; flow cytometry, FIG. 6L) | 4T1-luc tumor growth / antitumor response (4T1-luc breast tumors; immunocompetent mice, FIGS. 6H and 6I) | total and secreted GAS6 protein (GAS6 in MDA-MB-231 cells; data not shown) | GAS6 expression (GAS6 in MDA-MB-231 cells; mesenchymal MDA-MB-231 cells, FIG. 4I) | AXL signaling (AXL signaling) | lung metastases ([2]; MDA-MB-231-luc) | tumor cell autonomous growth ([2]; orthotopic MDA-MB-231-luc breast tumors)
NS(=O)(=O)OC[C@@H]1C[C@@H](n2ccc3c(N[C@H]4CCc5ccccc54)ncnc32)C[C@@H]1O [MLN4924] | increased EYA2 levels | did not disrupt FBXO7-EYA2 binding | – | – | – | – | – | – | – | – | – | –
O=C(N/N=C/c1ccc(Sc2ccccn2)o1)c1cccc(F)c1 [EYA2i, MLS000544460] | – | – | induced similar effects on gene expression and cell morphology | sensitized cancer cells to doxorubicin treatment | stimulated | increased | modestly reduced | decreased total and secreted GAS6 protein | decreased GAS6 expression | suppressed AXL signaling | diminished | diminished
